# From PubChem BioAssay (NCI)
#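 96-well plates; 48 h exposure; 5 concentrations. Endpoints by linear interpolation between flanking doses. Not reached: highest tested concentration assigned. Definition used: TGI = concentration required for complete inhibition of growth.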
# What was measured:
# Experiment in all cases: DTP human tumour cell line panel, 48 h
# 786-0 renal = tested on: 786-0 renal
# A498 renal = tested on: A498 renal
# A549 NSCLC = tested on: A549 NSCLC
# ACHN renal = tested on: ACHN renal
# BT-549 breast = tested on: BT-549 breast
# CAKI-1 renal = tested on: CAKI-1 renal
# CCRF-CEM leukemia = tested on: CCRF-CEM leukemia
# COLO 205 colon = tested on: COLO 205 colon
# DU-145 prostate = tested on: DU-145 prostate
# EKVX NSCLC = tested on: EKVX NSCLC
# HCC-2998 colon = tested on: HCC-2998 colon
# HCT-116 colon = tested on: HCT-116 colon
# HCT-15 colon = tested on: HCT-15 colon
# HL-60(TB) leukemia = tested on: HL-60(TB) leukemia
# HOP-62 NSCLC = tested on: HOP-62 NSCLC
# HOP-92 NSCLC = tested on: HOP-92 NSCLC
# HS 578T breast = tested on: HS 578T breast
# HT29 colon = tested on: HT29 colon
# IGROV1 ovarian = tested on: IGROV1 ovarian
# K-562 leukemia = tested on: K-562 leukemia
# KM12 colon = tested on: KM12 colon
# LOX IMVI melanoma = tested on: LOX IMVI melanoma
# M14 melanoma = tested on: M14 melanoma
# MCF7 breast = tested on: MCF7 breast
# MDA-MB-231 breast = tested on: MDA-MB-231 breast
# MDA-MB-435 = tested on: MDA-MB-435
# MDA-N = tested on: MDA-N
# MOLT-4 leukemia = tested on: MOLT-4 leukemia
# NCI-H226 lung = tested on: NCI-H226 lung
# NCI-H23 lung = tested on: NCI-H23 lung
# NCI-H460 lung = tested on: NCI-H460 lung
# NCI-H522 lung = tested on: NCI-H522 lung
# NCI/ADR-RES ovarian = tested on: NCI/ADR-RES ovarian
# OVCAR-3 ovarian = tested on: OVCAR-3 ovarian
# OVCAR-4 ovarian = tested on: OVCAR-4 ovarian
# OVCAR-5 ovarian = tested on: OVCAR-5 ovarian
# OVCAR-8 ovarian = tested on: OVCAR-8 ovarian
# PC-3 prostate = tested on: PC-3 prostate
# RPMI-8226 leukemia = tested on: RPMI-8226 leukemia
# RXF 393 renal = tested on: RXF 393 renal
# SF-268 CNS = tested on: SF-268 CNS
# SF-295 CNS = tested on: SF-295 CNS
# SF-539 CNS = tested on: SF-539 CNS
# SK-MEL-2 melanoma = tested on: SK-MEL-2 melanoma
# SK-MEL-28 melanoma = tested on: SK-MEL-28 melanoma
# SK-MEL-5 melanoma = tested on: SK-MEL-5 melanoma
# SK-OV-3 ovarian = tested on: SK-OV-3 ovarian
# SN12C renal = tested on: SN12C renal
# SNB-19 CNS = tested on: SNB-19 CNS
# SNB-75 CNS = tested on: SNB-75 CNS
# SW-620 colon = tested on: SW-620 colon
# T-47D breast = tested on: T-47D breast
# TK-10 renal = tested on: TK-10 renal
# U251 CNS = tested on: U251 CNS
# UACC-257 melanoma = tested on: UACC-257 melanoma
# UACC-62 melanoma = tested on: UACC-62 melanoma
# UO-31 renal = tested on: UO-31 renal
# SR leukemia = tested on: SR leukemia
compound,measurement,setting,value
Cc1c(N)nc([C@H](CC(N)=O)NC[C@H](N)C(N)=O)nc1C(=O)N[C@H](C(=O)N[C@H](C)[C@@H](O)CC(=O)N[C@H](C(=O)NC(O[C@@H]1O[C@@H](C)[C@@H](N)[C@@H](O)[C@H]1O)C(O)c1nc(-c2nc(C(=O)NCCCCN)cs2)cs1)[C@@H](C)O)[C@@H](O[C@@H]1O[C@@H](CO)[C@@H](O)[C@H](O)[C@@H]1O[C@H]1O[C@H](CO)[C@@H](O)[C@H](OC(N)=O)[C@@H]1O)c1c[nH]cn1 (some centres undefined),TGI,786-0 renal,> 50 µM
same,TGI,A498 renal,> 50 µM
same,TGI,A549 NSCLC,> 50 µM
same,TGI,ACHN renal,> 50 µM
same,TGI,BT-549 breast,> 50 µM
same,TGI,CAKI-1 renal,> 50 µM
same,TGI,CCRF-CEM leukemia,> 50 µM
same,TGI,COLO 205 colon,> 50 µM
same,TGI,DU-145 prostate,> 50 µM
same,TGI,EKVX NSCLC,> 50 µM
same,TGI,HCC-2998 colon,> 50 µM
same,TGI,HCT-116 colon,> 50 µM
same,TGI,HCT-15 colon,> 50 µM
same,TGI,HL-60(TB) leukemia,> 50 µM
same,TGI,HOP-62 NSCLC,> 50 µM
same,TGI,HOP-92 NSCLC,> 50 µM
same,TGI,HS 578T breast,> 50 µM
same,TGI,HT29 colon,> 50 µM
same,TGI,IGROV1 ovarian,> 50 µM
same,TGI,K-562 leukemia,> 50 µM
same,TGI,KM12 colon,> 50 µM
same,TGI,LOX IMVI melanoma,> 50 µM
same,TGI,M14 melanoma,> 50 µM
same,TGI,MCF7 breast,> 50 µM
same,TGI,MDA-MB-231 breast,> 50 µM
same,TGI,MDA-MB-435,> 50 µM
same,TGI,MDA-N,> 50 µM
same,TGI,MOLT-4 leukemia,> 50 µM
same,TGI,NCI-H226 lung,> 50 µM
same,TGI,NCI-H23 lung,> 50 µM
same,TGI,NCI-H460 lung,> 50 µM
same,TGI,NCI-H522 lung,> 50 µM
same,TGI,NCI/ADR-RES ovarian,> 50 µM
same,TGI,OVCAR-3 ovarian,> 50 µM
same,TGI,OVCAR-4 ovarian,> 50 µM
same,TGI,OVCAR-5 ovarian,> 50 µM
same,TGI,OVCAR-8 ovarian,> 50 µM
same,TGI,PC-3 prostate,> 50 µM
same,TGI,RPMI-8226 leukemia,> 50 µM
same,TGI,RXF 393 renal,> 50 µM
same,TGI,SF-268 CNS,> 50 µM
same,TGI,SF-295 CNS,> 50 µM
same,TGI,SF-539 CNS,> 50 µM
same,TGI,SK-MEL-2 melanoma,> 50 µM
same,TGI,SK-MEL-28 melanoma,> 50 µM
same,TGI,SK-MEL-5 melanoma,> 50 µM
same,TGI,SK-OV-3 ovarian,> 50 µM
same,TGI,SN12C renal,> 50 µM
same,TGI,SNB-19 CNS,> 50 µM
same,TGI,SNB-75 CNS,> 50 µM
same,TGI,SW-620 colon,> 50 µM
same,TGI,T-47D breast,> 50 µM
same,TGI,TK-10 renal,> 50 µM
same,TGI,U251 CNS,> 50 µM
same,TGI,UACC-257 melanoma,> 50 µM
same,TGI,UACC-62 melanoma,> 50 µM
same,TGI,UO-31 renal,> 50 µM
CCOC(=O)CCC(NC(=O)c1ccc(Nc2nc3cc(C(F)(F)F)ccc3nc2C(=O)OCC)cc1)C(=O)OCC (centres undefined),TGI,786-0 renal,5.5 µM
same,TGI,A549 NSCLC,27.4 µM
same,TGI,ACHN renal,26.7 µM
same,TGI,BT-549 breast,29.8 µM
same,TGI,CCRF-CEM leukemia,> 100 µM
same,TGI,COLO 205 colon,> 100 µM
same,TGI,DU-145 prostate,> 100 µM
same,TGI,EKVX NSCLC,38 µM
same,TGI,HCC-2998 colon,> 100 µM
same,TGI,HCT-116 colon,19.9 µM
same,TGI,HCT-15 colon,> 100 µM
same,TGI,HL-60(TB) leukemia,> 100 µM
same,TGI,HOP-62 NSCLC,27 µM
same,TGI,HOP-92 NSCLC,9.95 µM
same,TGI,HT29 colon,18.7 µM
same,TGI,IGROV1 ovarian,43.5 µM
same,TGI,K-562 leukemia,> 100 µM
same,TGI,LOX IMVI melanoma,36.2 µM
same,TGI,M14 melanoma,16.9 µM
same,TGI,MDA-MB-231 breast,34.1 µM
same,TGI,MDA-MB-435,21.9 µM
same,TGI,MDA-N,21.3 µM
same,TGI,MOLT-4 leukemia,> 100 µM
same,TGI,NCI-H23 lung,39.9 µM
same,TGI,NCI-H460 lung,33.9 µM
same,TGI,NCI-H522 lung,42.2 µM
same,TGI,NCI/ADR-RES ovarian,29.7 µM
same,TGI,OVCAR-3 ovarian,26.7 µM
same,TGI,OVCAR-5 ovarian,39.5 µM
same,TGI,OVCAR-8 ovarian,24.6 µM
same,TGI,PC-3 prostate,21.5 µM
same,TGI,RPMI-8226 leukemia,> 100 µM
same,TGI,SF-268 CNS,28.6 µM
same,TGI,SF-295 CNS,19.3 µM
same,TGI,SF-539 CNS,25.2 µM
same,TGI,SK-MEL-2 melanoma,28.8 µM
same,TGI,SK-MEL-28 melanoma,27.9 µM
same,TGI,SK-MEL-5 melanoma,93 µM
same,TGI,SN12C renal,24.3 µM
same,TGI,SNB-19 CNS,22.6 µM
same,TGI,SR leukemia,> 100 µM
same,TGI,SW-620 colon,81.6 µM
same,TGI,T-47D breast,29.7 µM
same,TGI,U251 CNS,23.3 µM
same,TGI,UACC-257 melanoma,34.5 µM
same,TGI,UACC-62 melanoma,41.7 µM
same,TGI,UO-31 renal,24.6 µM
